Data from patent US4923865A, “Substituted 1-(1H-imidazol-4-yl)alkyl-benzamides as anti-ischemics and as alpha-2-adrenergic receptor agonists” (U C B Societe Anonyme, priority 1988, dated 1990).
Like-named read-outs stand apart in the source and are kept apart here.

Assays:
[1] = target: T1, presynaptic α2 -adrenergic receptors (Cavia porcellus, UniProt Q60474); assay: Inhibition of the contraction of electrically stimulated guinea-pig ileum
T1 construct: Stimulation of a guinea-pig ileum; from tissue; host or cells: guinea-pig ileum longitudinal muscle strips
T1 sequence (Q60474 1-464): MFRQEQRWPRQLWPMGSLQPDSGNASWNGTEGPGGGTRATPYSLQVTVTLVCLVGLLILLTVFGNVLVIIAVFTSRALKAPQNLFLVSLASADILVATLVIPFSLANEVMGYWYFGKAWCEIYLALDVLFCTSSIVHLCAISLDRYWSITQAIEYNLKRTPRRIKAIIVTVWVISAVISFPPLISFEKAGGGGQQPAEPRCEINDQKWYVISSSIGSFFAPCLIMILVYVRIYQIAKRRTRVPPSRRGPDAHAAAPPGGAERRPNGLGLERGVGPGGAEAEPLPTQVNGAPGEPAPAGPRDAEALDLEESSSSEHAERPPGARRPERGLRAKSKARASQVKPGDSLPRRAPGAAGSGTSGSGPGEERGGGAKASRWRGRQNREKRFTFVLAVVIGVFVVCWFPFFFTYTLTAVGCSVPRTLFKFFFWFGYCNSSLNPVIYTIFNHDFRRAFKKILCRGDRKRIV
From the text: (c) Stimulation of a guinea-pig ileum. Longitudinal muscles strips attached to an isometric strain gauge are suspended in Tyrode's solution and are stretched under a tension of 1 g (G. M. DREW. Brit. J. Pharmacol. 64, (1978), 293-300; M. ANDREJAK et al., Naunyn-Schmiedelberg's Arch. Pharmacol. 314, (1980), 83-87).
Electrical stimulation of the parasympathetic nerves associated with the ileum fragments causes a contraction of the muscle. This contraction is reduced in the presence of a presynaptic α2 -agonist and the magnitude by which the contraction is reduced depends on the concentration of the agonist used. This effect is antagonized by the simultaneous presence of an α2 -antagonist such as α-yohimbine. The compounds to be studied have been tested at increasing concentrations ranging from 10^-10 to 10^-3 mole/l.
The concentration (IC50 in mole/l) that reduces by 50% the intensity of the contraction of the muscle is determined.
In the presence of α-yohimbine at a concentration of 10^-6 mole/l, the concentration of the compounds A or B, for example, that is required for reducing muscle contraction intensity by 50% is higher, and becomes greater than 10^-6 mole/l, which gives additional confirmation that the compounds of the invention act really at the level of the presynaptic α2 -adrenergic receptors.

male NMRI mice = assay: Toxicity, Irwin's test (lethal dose); format: in vivo; settings: intraperitoneal
Description: 5. Toxicity. The toxicity of the compounds according to the present invention has been determined in male NMRI mice by means of Irwin's test (S. IRWIN, Psychopharmacologia, 13, (1968), 222-257).
Progressive doses of the test compound are administered intraperitoneally to groups of three mice until the lethal dose is reached (dose causing the death of two out of three animals within 48 hours). In Table IX below, the lethal dose in mg/kg found for the compounds of the invention is given. It can be seen from this Table that the compounds of the invention are not very toxic.

myocardial ischemia = assay: Artificially induced acute coronary insufficiency in an awake dog (ST-segment elevation); format: in vivo; settings: Canis lupus familiaris, 0.1 h, intravenous, 6 min coronary occlusion, groups of ten animals, read-out: DE20 (dose producing a mean reduction of at least 20% of the ST-segment elevation)
From the text: Because of the reduction in the oxygen supply which results from this, the occlusion produces myocardial ischemia which is expressed on the electrocardiogram by a reproducible and quantifiable ST-segment elevation. The anti-ischemic action of a compound results in a reduction of the magnitude of the ST-segment elevation. (P. R. MAROKO and E. BRAUNWALD, Circulation, 53, (1976, Suppl. I), 162-168; S. E. EPSTEIN et al., Circulation, 53, (1976, Suppl. I), 191-197).

[2] = target: T1, presynaptic α2 -adrenergic receptors; assay: Stimulation of the isolated guinea-pig atria (reduction in tachycardia); settings: isolated guinea-pig atria, electrical stimulation; read-out: IC30 (30% reduction in the maximum tachycardia)
From the text: (b) Stimulation of the isolated guinea-pig atria. The release of noradrenalin at the level of the nerve endings is mediated by a feedback regulating mechanism through the presynaptic α2 -adrenergic receptors. […] Ed. D. S. DAVIES, J. L. REID, Pitman, London.
The electrical stimulation of the isolated guinea-pig atria induces a release of noradrenalin which results in an increase in the rate of the heart beat (tachycardia). This tachycardia is inhibited by an α2 -agonist such as, for example, clonidine, in a proportion which depends on the dose of the agonist used. The action of the α2 -agonist may be limited in the presence of an α2 -specific antagonist such as α-yohimbine.
The in vitro activity of the compounds of the invention on the presynaptic α2 -adrenergic receptors has been studied on the isolated guinea-pig atria, electrically stimulated according to the method described by I. C. MEDGETT et al., Naunyn-Schmiedeberg's Arch. Pharmacol. 304, (1978), 215-221. The compound to be studied is tested in increasing concentrations ranging from 10^-10 to 10^-3 mole/l. The concentration (IC30 in mole/l) which causes a 30% reduction in the maximum tachycardia obtained initially during the electrical stimulation of the atria in the absence of the compound to be tested, is determined.
On the other hand, in the presence of a concentration of 10^-6 mole/l of α-yohimbine, the concentration of compound A necessary to obtain a reduction of 30% in the tachycardia is greater than 10^-7 mole/l.

[3] = tested on: stenosis at the level of a coronary artery; assay: Effort trial on a moving belt in dogs with coronary artery stenosis; format: in vivo, dog; settings: maximum effort at 12 Km/h for 1 minute
Description: (b) Effort trial on a moving belt. In this test, a group of at least four dogs is used (equipped with intracardiac electrodes), the dogs having an organic stenosis at the level of a coronary artery. This stenosis causes imbalance between the demand and supply of oxygen when the animal is required to make an effort. This imbalance is expressed on the electrocardiogram by an increase in the ST-segment.
In the trial, the dog runs at a speed of 12 km/h on a moving belt having a slope of 15°. This maximum effort is required for one minute. During the trial, the increase in the ST-segment is recorded, together with the natural increase in the pulse rate. The experiment is repeated at least four times, and the mean of the values obtained is taken as reference (100%) for the group of animals. The animals are then allowed to rest for a minimum of 24 hours before being subjected to a new effort trial under the influence of the compound to be studied.
The compound to be studied is administered slowly (over 1 minute) by intravenous injection 5 minutes before the new effort trial. In the course of the latter, the variations in the same parameters are recorded.

[4] = guinea-pig ileum, electrical stimulation, read-out: IC50 (reduces by 50% the intensity of the contraction of the muscle)

| SMILES | IC50 [1, 4] [nM] | lethal dose (death of two out of three animals within 48 hours) (male NMRI mice) [mg/kg] | ED20 (myocardial ischemia) [µmol/kg] | also measured |
| --- | --- | --- | --- | --- |
| CC(c1c[nH]cn1)c1cccc(C(N)=O)c1O.Cl (single isomer, unassigned; (+)) [P, (+)-2-hydroxy-3-[1-(1H-imidazol-4-yl)ethyl]-benzamide hydrochloride] | 2 | 294 |  |  |
| CC(c1c[nH]cn1)c1cccc(C(N)=O)c1O.Cl (stereo not drawn) [B, 2-hydroxy-3-[1-(1H-imidazol-4-yl)ethyl]-benzamide hydrochloride] | 3 | 267 | 0.02 | IC50 ([1]; in the presence of 10^-6 mole/l of α-yohimbine, read-out: concentration required for reducing muscle contraction intensity by 50%): > 1000 nM; IC30 [2]: 0.75 nM |
| CNC(=O)c1cccc(Cc2c[nH]cn2)c1O.Cl [C, 2-hydroxy-3-[(1H-imidazol-4-yl)methyl]-N-methylbenzamide hydrochloride] |  | 267 | 0.3 | reduction in ST-segment ([3]; dose 0.32 μmole/kg i.v.): 50%; reduction in the pulse rate ([3]; dose 0.32 μmole/kg i.v.): 1 beats/min.; IC30 [2]: 130 nM |
| NNC(=O)c1cccc(Cc2c[nH]cn2)c1O [Compound D, 2-hydroxy-3-[(1H-imidazol-4-yl)methyl]-benzohydrazide] |  | 232 | 3 | IC30 [2]: 220 nM |
| Cl.O=C(NCCO)c1cccc(Cc2c[nH]cn2)c1O [E, 2-hydroxy-N-(2-hydroxyethyl)-3-[(1H-imidazol-4-yl)methyl]-benzamide hydrochloride] | 60000 | 893 | < 3 |  |
| COc1c(Cc2c[nH]cn2)cccc1C(N)=O.Cl [F, 3-[(1H-imidazol-4-yl)methyl]-2-methoxybenzamide hydrochloride] | 70000 | 802 | < 3 | IC30 [2]: 70 nM |
| NC(=O)c1cc(Cc2c[nH]cn2)ccc1O [G, 2-hydroxy-5-[(1H-imidazol-4-yl)methyl]-benzamide] |  | 651 | < 1 |  |
| CN(C)C(=O)c1cccc(Cc2c[nH]cn2)c1O [H, 2-hydroxy-3-[(1H-imidazol-4-yl)methyl]-N,N-dimethylbenzamide] |  | 245 |  |  |
| Cl.NC(=O)c1c(O)ccc(Cc2c[nH]cn2)c1O [I, 2,6-dihydroxy-3-[(1H-imidazol-4-yl)methyl]-benzamide hydrochloride] | 300 | > 270 | 0.32 |  |
| CC(C)(C)c1cc(Cc2c[nH]cn2)c(O)c(C(N)=O)c1 [J, 5-tert-butyl-2-hydroxy-3-[(1H-imidazol-4-yl)methyl]-benzamide] | 30000 |  |  |  |
| Cc1ccc(Cc2c[nH]cn2)c(O)c1C(N)=O.Cl [K, 2-hydroxy-3-[(1H-imidazol-4-yl)methyl]-6-methylbenzamide hydrochloride] |  | > 268 | 0.32 |  |
| Cc1ccc(C(N)=O)c(O)c1Cc1c[nH]cn1 [L, 2-hydroxy-3-[(1H-imidazol-4-yl)methyl]-4-methylbenzamide] | 30 | 231 |  |  |
| Cl.O=C(NO)c1cccc(Cc2c[nH]cn2)c1O [M, N,2-dihydroxy-3-[(1H-imidazol-4-yl)methyl]-benzamide hydrochloride] | 400 | > 288 |  |  |
| CC(c1c[nH]cn1)c1ccc(O)c(C(N)=O)c1O.Cl (stereo not drawn) [N, 2,6-dihydroxy-3-[1-(1H-imidazol-4-yl)ethyl]-benzamide hydrochloride] |  | 284 |  |  |
| Cc1c(Cc2c[nH]cn2)ccc(O)c1C(N)=O.Cl [O, 6-hydroxy-3-[(1H-imidazol-4-yl)methyl]-2-methylbenzamide hydrochloride] |  | > 268 |  |  |
| Clc1cccc(Cl)c1N=C1NCCN1 [clonidine, reference compound] | 20 |  |  | IC30 [2]: 3.2 nM |
| CC(C)NCC(O)COc1cccc2ccccc12 (stereo not drawn) [propranolol, 1-(isopropylamino)-3-(1-naphthyloxy)-2-propanol, reference compound] |  |  | 2 | reduction in ST-segment ([3]; dose 1.0 μmole/kg i.v.): 74%; reduction in the pulse rate ([3]; dose 1.0 μmole/kg i.v.): 35 beats/min. |
